Results on one compound are retold here after patent US5188642A, “Glyphosate-resistant plants” (priority 1990, dated 1993).

For this assay, the system named is infected potato stem explants. Briefly: Kanamycin selection of potato stem explants. The assay is classed as cell-based, potato (Russet Burbank). As to conditions: Kanamycin at 300 mg/l. As for the experimental part: Potato--Shoot tips of virus-free Russet Burbank are subcultured on media containing MS major and minor salts, 0.17 g/l sodium dihygrogen phosphate, 0.4 mg/l thiamine hydrochloride, 0.1 g/l inositol, 3% sucrose, 1.5 g/l Gelrite™ (Kelco, Co ) at pH 5.6. Cultures are grown at 24C in a 16 hour photoperiod. Shoots are used approximately 3-4 weeks after subculturing. Stem internodes are cut into approximately 8 mm lengths and split lengthwise, then the cut surface is smeared with Agrobacterium carrying binary vector pMON542 and helper plasmid pTiT37-SE which had been streaked on an LB agar plate and grown for a few days. Stem sections are placed cut side down on the surface of the medium containing MS salts, MS organics, 3% sucrose, 2.25 mg/l BA, […] NAA, 10 mg/l GA, 1.5 g/l Gelrite at pH 5.6. After 4 days, the stem explants are transferred to the same medium but with carbenicillin at 500 mg/l and kanamycin as the selective agent at 0 or 300 mg/l. Two weeks after inoculation, the explants are moved onto medium of the same composition but without NAA.

As to `NC[C@H]1O[C@H](O[C@H]2[C@H](O)[C@@H](O[C@H]3O[C@H](CO)[C@@H](O)[C@H](N)[C@H]3O)[C@H](N)C[C@@H]2N)[C@H](O)[C@@H](O)[C@@H]1O` [Kanamycin, kanamycin], the “swelling and callusing of explants” value is “sufficient to prevent swelling and callusing of the infected explants without killing the tissue”.
